Measurements published in PubChem BioAssay AID256 (DTP/NCI, 2004).
Toxic doses and inconclusive results are not listed. The calls were made as follows: active = survival T/C of 150% or more; inactive = T/C below 125% in these data.

Tested on: CD2F1 mice, L1210 leukemia ip, survival T/C
Experiment: NCI In Vivo Anticancer Drug Screen. Data for tumor model L1210 Leukemia (intraperitoneal) in CD2F1 (CDF1) mice
Settings: higher = longer survival
Procedure, shortened: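 Transplantable tumor in mice; compound-treated vs vehicle-treated groups. Read-out = treated/control ratio of the measured endpoint.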

[1] = endpoint: mean survival time, dose: 50.0 mg/kg/injection, schedule: Q01DX009 (ip), vehicle: saline with Tween-80
[2] = endpoint: mean survival time, dose: 100.0 mg/kg/injection, schedule: Q01DX009 (ip), vehicle: saline with Tween-80
[3] = endpoint: mean survival time, dose: 100.0 mg/kg/injection, schedule: Q04DX003 (ip), vehicle: saline with Tween-80
[4] = endpoint: mean survival time, dose: 200.0 mg/kg/injection, schedule: Q01DX009 (ip), vehicle: saline with Tween-80
[5] = endpoint: mean survival time, dose: 200.0 mg/kg/injection, schedule: Q04DX003 (ip), vehicle: saline with Tween-80
[6] = endpoint: mean survival time, dose: 400.0 mg/kg/injection, schedule: Q04DX003 (ip), vehicle: saline with Tween-80
[7] = endpoint: mean survival time, dose: 400.0 mg/kg/injection, schedule: Q01DX009 (ip), vehicle: saline with Tween-80

Measured: T/C

Nc1ncnc2c1ncn2C1OC(COP(=O)(O)O)C(O)C1O.[NH-]C1CCCCC1[NH-].[Pt+2] (stereo unspecified)
inactive: endpoint: median survival time, dose: 3.12 mg/kg/injection, schedule: Q04DX003 (ip), vehicle: saline 101 % of control | endpoint: median survival time, dose: 6.25 mg/kg/injection, schedule: Q04DX003 (ip), vehicle: saline 108 % of control | endpoint: median survival time, dose: 12.5 mg/kg/injection, schedule: Q04DX003 (ip), vehicle: saline 103 % of control | endpoint: median survival time, dose: 25.0 mg/kg/injection, schedule: Q04DX003 (ip), vehicle: saline 108 % of control | endpoint: median survival time, dose: 50.0 mg/kg/injection, schedule: Q04DX003 (ip), vehicle: saline 112 % of control | endpoint: median survival time, dose: 100.0 mg/kg/injection, schedule: Q04DX003 (ip), vehicle: saline 108 % of control | endpoint: median survival time, dose: 200.0 mg/kg/injection, schedule: Q04DX003 (ip), vehicle: saline 122 % of control

CCCN(N=O)C(=O)Nc1ccc(C2CC(=O)N(C)C2=O)cc1 (stereo unspecified)
inactive: endpoint: mean survival time, dose: 12.5 mg/kg/injection, schedule: Q01DX001 (ip), vehicle: distilled water + Tween-80 112 % of control | endpoint: mean survival time, dose: 25.0 mg/kg/injection, schedule: Q01DX001 (ip), vehicle: distilled water + Tween-80 111 % of control | endpoint: mean survival time, dose: 50.0 mg/kg/injection, schedule: Q01DX001 (ip), vehicle: distilled water + Tween-80 109 % of control | endpoint: mean survival time, dose: 100.0 mg/kg/injection, schedule: Q01DX001 (ip), vehicle: distilled water + Tween-80 101 % of control | endpoint: mean survival time, dose: 200.0 mg/kg/injection, schedule: Q01DX001 (ip), vehicle: distilled water + Tween-80 107 % of control

O=c1oc2c(ccc3ccccc32)c(O)c1-c1ccccc1
inactive: [1] 103 % of control | [2] 103 % of control

Nc1ncc(N)c(N)n1
inactive: endpoint: mean survival time, dose: 250.0 mg/kg/injection, schedule: Q04DX003 (ip), vehicle: saline sonified 102 % of control | endpoint: mean survival time, dose: 500.0 mg/kg/injection, schedule: Q04DX003 (ip), vehicle: saline sonified 98 % of control | endpoint: mean survival time, dose: 1000.0 mg/kg/injection, schedule: Q04DX003 (ip), vehicle: saline sonified 103 % of control

CC(=O)OCC1OC(N(C(C)=O)c2nc(Cl)c3cc[nH]c3n2)C(OC(C)=O)C1OC(C)=O (stereo unspecified)
inactive: endpoint: mean survival time, dose: 12.5 mg/kg/injection, schedule: Q01DX005 (ip), vehicle: water 104 % of control | endpoint: mean survival time, dose: 25.0 mg/kg/injection, schedule: Q01DX005 (ip), vehicle: water 101 % of control | endpoint: mean survival time, dose: 50.0 mg/kg/injection, schedule: Q01DX005 (ip), vehicle: water 98 % of control | endpoint: mean survival time, dose: 100.0 mg/kg/injection, schedule: Q01DX005 (ip), vehicle: water 102 % of control | endpoint: mean survival time, dose: 200.0 mg/kg/injection, schedule: Q01DX005 (ip), vehicle: water 106 % of control

CCc1cc(O)cc(C)c1Cl
inactive: [2] 96 % of control | [3] 92 % of control | [4] 92 % of control | [5] 92 % of control | [6] 100 % of control

O=c1[nH]c(=O)n(C2OC(CO)C(O)C2O)nc1SCc1ccccc1 (stereo unspecified)
inactive: endpoint: mean survival time, dose: 12.5 mg/kg/injection, schedule: Q01DX005 (ip), vehicle: distilled water + Tween-80 100 % of control | endpoint: mean survival time, dose: 25.0 mg/kg/injection, schedule: Q01DX005 (ip), vehicle: distilled water + Tween-80 97 % of control | endpoint: mean survival time, dose: 50.0 mg/kg/injection, schedule: Q01DX005 (ip), vehicle: distilled water + Tween-80 101 % of control | endpoint: mean survival time, dose: 100.0 mg/kg/injection, schedule: Q01DX005 (ip), vehicle: distilled water + Tween-80 97 % of control | endpoint: mean survival time, dose: 200.0 mg/kg/injection, schedule: Q01DX005 (ip), vehicle: distilled water + Tween-80 97 % of control

CCOC(=O)c1cc(C)nc2c(Cl)cc(Cl)cc12
inactive: [2] 87 % of control | [3] 87 % of control | [4] 87 % of control | [5] 88 % of control | [6] 86 % of control

OC(CCCCl)CC(O)(C(F)(F)F)C(F)(F)F (stereo unspecified)
inactive: [2] 102 % of control | [3] 108 % of control | [4] 94 % of control | [5] 89 % of control | [7] 86 % of control | [6] 94 % of control

COc1ccc(OC)c(C2=CCCCCC2)c1OC
inactive: [3] 101 % of control | [5] 101 % of control | [6] 98 % of control

O=C1C=CC(=O)c2nc3c(nc21)[nH]c1ccccc13
inactive: endpoint: mean survival time, dose: 75.0 mg/kg/injection, schedule: Q01DX001 (ip), vehicle: saline 101 % of control | endpoint: mean survival time, dose: 150.0 mg/kg/injection, schedule: Q01DX001 (ip), vehicle: saline 98 % of control | endpoint: mean survival time, dose: 300.0 mg/kg/injection, schedule: Q01DX001 (ip), vehicle: saline 97 % of control

CC1(C)CCC(C)(C)c2c1ccc(O)c2Sc1c(O)ccc2c1C(C)(C)CCC2(C)C
inactive: [2] 97 % of control | [3] 95 % of control | [4] 89 % of control | [5] 97 % of control | [7] 95 % of control | [6] 91 % of control

CCc1ccc(C#N)cc1O
inactive: [2] 102 % of control | [3] 96 % of control | [4] 98 % of control | [5] 100 % of control | [7] 96 % of control | [6] 100 % of control

O=[N+]([O-])c1cc(Cl)ccc1O
inactive: [2] 93 % of control | [4] 90 % of control

O=C1C2(CCCCC2)C(=O)C12CCCCC2
inactive: [1] 96 % of control | [2] 110 % of control | [4] 93 % of control

O=C1C2C(C(=O)N1c1ccc(F)c([N+](=O)[O-])c1)C1(Cl)C(Cl)=C(Cl)C2(Cl)C1(Cl)Cl (stereo unspecified)
inactive: [1] 108 % of control | [2] 116 % of control | [4] 111 % of control

Nc1ncnc(N)c1N
inactive: [2] 112 % of control

Cc1ccc(S(=O)(=O)N/N=C(\C(=O)O)c2ccccc2)cc1
inactive: endpoint: mean survival time, dose: 12.5 mg/kg/injection, schedule: Q01DX009 (ip), vehicle: Klucel (hydroxypropylcellulose) (HPC) 95 % of control | endpoint: mean survival time, dose: 25.0 mg/kg/injection, schedule: Q01DX009 (ip), vehicle: Klucel (hydroxypropylcellulose) (HPC) 96 % of control | endpoint: mean survival time, dose: 50.0 mg/kg/injection, schedule: Q01DX009 (ip), vehicle: Klucel (hydroxypropylcellulose) (HPC) 96 % of control | endpoint: mean survival time, dose: 100.0 mg/kg/injection, schedule: Q01DX009 (ip), vehicle: Klucel (hydroxypropylcellulose) (HPC) 95 % of control | endpoint: mean survival time, dose: 200.0 mg/kg/injection, schedule: Q01DX009 (ip), vehicle: Klucel (hydroxypropylcellulose) (HPC) 93 % of control

O=C(C=P(c1ccccc1)(c1ccccc1)c1ccccc1)c1ccc([N+](=O)[O-])cc1
inactive: endpoint: mean survival time, dose: 50.0 mg/kg/injection, schedule: Q01DX001 (ip), vehicle: Klucel (hydroxypropylcellulose) (HPC) 90 % of control | endpoint: mean survival time, dose: 100.0 mg/kg/injection, schedule: Q01DX001 (ip), vehicle: Klucel (hydroxypropylcellulose) (HPC) 94 % of control | endpoint: mean survival time, dose: 200.0 mg/kg/injection, schedule: Q01DX001 (ip), vehicle: Klucel (hydroxypropylcellulose) (HPC) 102 % of control | endpoint: mean survival time, dose: 400.0 mg/kg/injection, schedule: Q01DX001 (ip), vehicle: Klucel (hydroxypropylcellulose) (HPC) 93 % of control

COc1cc(Cl)ccc1NC(=O)Nc1cccc(C(=O)O)c1
inactive: endpoint: mean survival time, dose: 12.5 mg/kg/injection, schedule: Q01DX009 (ip), vehicle: saline with Tween-80 97 % of control | endpoint: mean survival time, dose: 25.0 mg/kg/injection, schedule: Q01DX009 (ip), vehicle: saline with Tween-80 90 % of control | [1] 90 % of control | [2] 96 % of control | [4] 90 % of control

ClCc1ccc(Cl)c(Cl)c1
inactive: endpoint: mean survival time, dose: 100.0 mg/kg/injection, schedule: Q04DX003 (ip), vehicle: Klucel (hydroxypropylcellulose) (HPC) 102 % of control | endpoint: mean survival time, dose: 200.0 mg/kg/injection, schedule: Q04DX003 (ip), vehicle: Klucel (hydroxypropylcellulose) (HPC) 102 % of control | endpoint: mean survival time, dose: 400.0 mg/kg/injection, schedule: Q04DX003 (ip), vehicle: Klucel (hydroxypropylcellulose) (HPC) 102 % of control

Nc1nc(N)c(-c2ccc(Cl)cc2)c(COc2ccc(CCC3(CCl)OCCO3)cc2)n1
inactive: endpoint: mean survival time, dose: 25.0 mg/kg/injection, schedule: Q01DX001 (ip), vehicle: saline with Tween-80 101 % of control | endpoint: mean survival time, dose: 50.0 mg/kg/injection, schedule: Q01DX001 (ip), vehicle: saline with Tween-80 101 % of control | endpoint: mean survival time, dose: 100.0 mg/kg/injection, schedule: Q01DX001 (ip), vehicle: saline with Tween-80 108 % of control

CC1=C(C)CS(=O)(=O)C1
inactive: [3] 95 % of control
